Columns and labels:
PfHsp70-x [1] = target: T1, PfHsp70-x (Plasmodium falciparum, UniProt A0A143ZXN1); assay: MESG-coupled ATPase assay; type: biochemical; conditions: 5 uM chaperone alone, 1 mM ATP, pH 8, 25 C
T1 construct: gene PF3D7_0831700; aa 25-679, export signal peptide excluded; codon-optimized synthetic DNA; N-terminal His6 tag cut by 3C protease; expressed in E. coli Rosetta2(DE3)

PfHsp70-x [2] = target: T1, PfHsp70-x; assay: MESG-coupled ATPase assay; type: biochemical; conditions: 5 uM chaperone alone, 1 mM ATP, pH 8, 25 C; remark: listed apart in the source
Hsc70 = target: T2, Hsc70 (Homo sapiens, UniProt P11142); conditions: 5 uM chaperone, 1 mM ATP, Mg2+, pH 8, 25 C
T2 construct: gene HSPA8
T2 sequence (P11142 whole entry): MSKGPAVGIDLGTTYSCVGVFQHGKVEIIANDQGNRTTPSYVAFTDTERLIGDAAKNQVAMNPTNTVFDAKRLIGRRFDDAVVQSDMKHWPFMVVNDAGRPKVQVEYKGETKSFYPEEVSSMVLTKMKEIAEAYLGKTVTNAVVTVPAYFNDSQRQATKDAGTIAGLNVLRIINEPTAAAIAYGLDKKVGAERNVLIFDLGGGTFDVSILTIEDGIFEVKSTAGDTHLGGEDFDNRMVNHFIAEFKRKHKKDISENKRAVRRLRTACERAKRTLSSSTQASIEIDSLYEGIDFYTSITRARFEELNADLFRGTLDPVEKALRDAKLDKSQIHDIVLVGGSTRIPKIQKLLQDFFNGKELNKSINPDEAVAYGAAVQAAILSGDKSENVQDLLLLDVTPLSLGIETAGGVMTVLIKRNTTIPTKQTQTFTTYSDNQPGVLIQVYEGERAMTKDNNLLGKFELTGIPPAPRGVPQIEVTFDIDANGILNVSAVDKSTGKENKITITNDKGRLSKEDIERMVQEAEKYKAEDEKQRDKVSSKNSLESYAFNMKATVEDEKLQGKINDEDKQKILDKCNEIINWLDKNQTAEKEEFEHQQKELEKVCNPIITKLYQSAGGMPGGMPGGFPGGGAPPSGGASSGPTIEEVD

With `CN(C)c1ccc2nc3ccc(=[N+](C)C)cc-3sc2c1` [methylene blue] the half-maximal inhibitory concentration (PfHsp70-x [1]) was “methylene blue inhibits both basal and stimulated PfHsp70-x activity”.
For `CC1(C)OC2=C(CC1Br)C(=O)C(=O)c1ccccc12` (stereo not drawn) [BBL, bromo-β-lapachona], the “apparent half-maximal inhibitory concentration” value (PfHsp70-x [2]) was “BBL inhibited PfHsp70-x in our ATPase assays with low micromolar apparent half-maximal inhibitory concentration”.
For `Nc1ncnc2c1ncn2[C@@H]1O[C@H](COP(=O)(O)OP(=O)(O)OP(=O)(O)O)[C@@H](O)[C@H]1O` [ATP], the “MESG-coupled ATPase assay” value (Hsc70) was “fold changes in ATP hydrolysis activities of PfHsp70-x (A, B) or human Hsc70 (C, D)”.
